Assay results published in patent US20220151274A1, “PREPARATIONS WITH C-METHYL FLAVONOIDS” (BRAIN AG, priority 2018, published 2022).

Assay: Tasting of high-purity Pinoquercetin + potassium chloride (KCl)
Assay type: in vivo
Settings: for bitterness of KCl is reduced by the product, share of responses: 14 responses
Method: The sensory evaluation of the samples was performed twice by a team of seven experienced assessors.

[1] = 10 μM (3.2 ppm) with 1.5% potassium chloride in spring water
[2] = 25 μM (8 ppm) with 1.5% potassium chloride in spring water
[3] = 50 μM (16 ppm) with 1.5% potassium chloride in spring water

Cc1c(O)cc2oc(-c3ccc(O)c(O)c3)c(O)c(=O)c2c1O [Pinoquercetin]
bitterness of KCl is reduced by the product, share of responses (1 μM (0.3 ppm) with 1.5% potassium chloride in spring water): product in 64% of responses average
dominant flavour [1]: sure dominant flavour: saltiness
bitterness of KCl is reduced by the product, share of responses [1]: product in 64% of responses average
dominant flavour [2]: flavour: saltiness
bitterness of KCl is reduced by the product, share of responses [2]: product in 64% of responses average
dominant flavour [3]: flavour: saltiness
bitterness of KCl is reduced by the product, share of responses [3]: product in 71% of responses average
